The values that follow come from US10759791B2, “Mammalian and bacterial nitric oxide synthase inhibitors” (Northwestern University, priority 2014, dated 2020).

Some results are limits rather than exact numbers.

What is called Ki is a dissociation constant, usually derived from enzyme kinetics or from competition with a known ligand. What is called efflux ratio is a quotient of directional permeabilities that is used to spot active efflux.

In data set [1] the target is T1, rat nNOS (Rattus norvegicus (Rat), UniProt P29476). In words: Hemoglobin capture assay, Ki (Tables 11-12). Conditions: ratio of Ki values.
Data set [2] has as its target T1, rat nNOS. In words: Oxyhemoglobin NO assay, Ki (Table 9). Type of data set: biochemical. Conditions: for e/n: ratio Ki eNOS to Ki rat nNOS; for i/n: ratio Ki iNOS to Ki rat nNOS.
Data set [3] deals with T1, rat nNOS. Put plainly: Hemoglobin capture assay, Ki (Example 159). Conditions: for Selectivity n/i: rat nNOS vs murine iNOS. Type of data set: biochemical.
The target of data set [4] is human eNOS (Homo sapiens (Human), UniProt P29474). Put plainly: Hemoglobin capture assay, Ki (Example 159). Type of data set: biochemical.
Data set [5] concerns the target T2, human nNOS (Homo sapiens (Human), UniProt P29475). In words: Hemoglobin capture assay, Ki (Example 159). In kind it is biochemical.
In data set [6] the target is bBiDomain (Bacillus subtilis (strain 168), UniProt O34453). Put plainly: bNOS activity inhibition with bBiDomain and YumC, nitrite by Griess reaction. Conditions: for % nitrite: inhibitor 30 μM, NOHA 200 μM, 4 min, single time point. For orientation: Nitrite, measured by Griess reagent, commonly stands in for NO production.
The subject of data set [7] is S. aureus UAMS1182. Put plainly: Effect of H2O2 and NOS inhibitors on S. aureus. Conditions: for H2O2-mediated killing of S. aureus on co-treatment: 200 μM inhibitor + 5 mM H2O2; for S. aureus survival, inhibitor alone: 200 μM, WT and Δnos strains. Type of data set: cell-based, Staphylococcus aureus.
Data set [8] can be described thus: Plasma pharmacokinetics and brain distribution in mice. Conditions: for T1/2: i.v. 2 mg/kg.
Data set [9] deals with T2, human nNOS. In words: Oxyhemoglobin NO assay, Ki (Table 9). In kind it is biochemical.
Data set [10] addresses CYP1A2 (Homo sapiens (Human), UniProt P05177). Put plainly: CYP inhibition assay, human liver microsomes. Conditions: 10 μM. On the technique in general: Liver microsomes are vesicles of endoplasmic reticulum, rich in cytochrome P450 enzymes.
The test system of data set [11] is B. subtilis. Put plainly: Effect of oxidative stress (ACR, H2O2) and NOS inhibitors on B. subtilis survival and growth. In kind it is cell-based, Bacillus subtilis.
In data set [12] the test system is Caco-2 cells.
Data set [13] can be described thus: in vitro. Conditions: human, human plasma, pH 7.4.
For data set [14] the following is noted: human, plasma, 4 h, 5 μM.

Chain of bBiDomain (O34453 other isoform, or with tags, fused parts or gaps): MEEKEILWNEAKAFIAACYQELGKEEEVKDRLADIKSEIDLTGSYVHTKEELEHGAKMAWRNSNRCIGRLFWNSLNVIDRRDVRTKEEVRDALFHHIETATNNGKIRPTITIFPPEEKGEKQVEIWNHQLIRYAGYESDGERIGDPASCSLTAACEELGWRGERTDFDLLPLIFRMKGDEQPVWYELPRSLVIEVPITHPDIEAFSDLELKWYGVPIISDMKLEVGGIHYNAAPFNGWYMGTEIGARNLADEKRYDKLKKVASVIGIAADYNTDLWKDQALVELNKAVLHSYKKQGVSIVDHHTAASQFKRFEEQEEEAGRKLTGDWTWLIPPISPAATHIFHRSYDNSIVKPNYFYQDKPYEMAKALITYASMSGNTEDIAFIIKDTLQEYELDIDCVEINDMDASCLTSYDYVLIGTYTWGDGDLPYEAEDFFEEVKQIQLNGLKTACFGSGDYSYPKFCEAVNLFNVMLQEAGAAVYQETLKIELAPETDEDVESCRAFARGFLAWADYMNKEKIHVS
Chain of CYP1A2 (P05177 whole entry): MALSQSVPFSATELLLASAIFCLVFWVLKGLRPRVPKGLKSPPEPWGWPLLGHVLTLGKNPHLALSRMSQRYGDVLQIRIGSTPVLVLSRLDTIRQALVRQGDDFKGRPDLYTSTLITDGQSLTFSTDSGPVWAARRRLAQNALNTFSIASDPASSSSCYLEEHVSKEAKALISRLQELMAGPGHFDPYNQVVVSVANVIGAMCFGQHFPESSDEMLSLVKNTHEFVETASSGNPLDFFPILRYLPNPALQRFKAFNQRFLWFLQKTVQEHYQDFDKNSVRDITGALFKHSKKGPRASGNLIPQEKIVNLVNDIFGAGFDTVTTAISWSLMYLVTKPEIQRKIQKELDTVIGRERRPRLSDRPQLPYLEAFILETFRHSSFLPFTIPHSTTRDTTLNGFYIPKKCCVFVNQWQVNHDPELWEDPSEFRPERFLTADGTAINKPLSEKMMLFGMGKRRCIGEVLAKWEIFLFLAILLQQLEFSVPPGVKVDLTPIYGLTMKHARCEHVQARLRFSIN

For `Cc1ccnc(CCc2cccc([C@H](N)Cc3cc(C)cc(N)n3)c2)c1` [Compound 5R, (R)-6-(2-Amino-2-(3-(2-(4-methylpyridin-2-yl)ethyl)phenyl)ethyl)-4-methylpyridin-2-amine], in [1], the e/n was 240 and the i/n is listed as greater than 22.

For `Cc1ccnc(CCc2cccc([C@@H](N)Cc3cc(C)cc(N)n3)c2)c1` [Compound 5S, (S)-6-(2-Amino-2-(3-(2-(4-methylpyridin-2-yl)ethyl)phenyl)ethyl)-4-methylpyridin-2-amine], in data set [1], the e/n was determined as 363 and the i/n is greater than 110.

As to `CNCCN(C)c1cccc(CCc2cc(C)cc(N)n2)c1` [Compound 10a, N^1-(3-(2-(6-Amino-4-methylpyridin-2-yl)ethyl)phenyl)-N^1,N^2-dimethylethane-1,2-diamine], in data set [2], the e/n is listed as 156 and the i/n came to 41.

Turning to `Cc1cc(N)nc(CCc2cccc(NCCN(C)C)c2)c1` [Compound 10b, N^1-(3-(2-(6-Amino-4-methylpyridin-2-yl)ethyl)phenyl)-N^2,N^2-dimethylethane-1,2-diamine], in [2], the e/n was determined as 125 and the i/n turned out to be 29.

For `Cc1cc(N)nc(CCc2cccc(N(C)CCN)c2)c1` [Compound 10c, N^1-(3-(2-(6-Amino-4-methylpyridin-2-yl)ethyl)phenyl)-N^1-methylethane-1,2-diamine], in data set [2], the e/n is recorded as 172 and the i/n was found to be 47.

For `Cc1cc(N)nc(CCc2cccc(N(C)CCCN)c2)c1` [Compound 10d, N^1-(3-(2-(6-Amino-4-methylpyridin-2-yl)ethyl)phenyl)-N-methylpropane-1,3-diamine], in data set [2], the e/n is reported as 25 and the i/n was found to be 11.

For `Cc1cc(N)nc(CCc2cncc(N3CCOCC3)c2)c1` [Compound 14c, 4-Methyl-6-(2-(5-morpholinopyridin-3-yl)ethyl)pyridin-2-amine], the values for the Ki in [3], in data set [4] and in data set [5] were 547 nM, 42600 nM and 862 nM, respectively. The same molecule registered a Selectivity n/i in data set [3] of 21. For the same molecule, the “Selectivity n/e (human)” value in [5] (human nNOS vs human eNOS) is given as 49.

In [3], `COCCCNc1cncc(CCc2cc(C)cc(N)n2)c1` [Compound 14e, 6-(2-(5-(3-Methoxypropylamino)pyridin-3-yl)ethyl)-4-methylpyridin-2-amine] came in with a Ki of 558 nM and a Selectivity n/i of 13.

Regarding `Nc1ccc2ccc(CCNCCCc3cccc(F)c3)cc2n1` [Compound 19, reference compound], in data set [6], the inhibition constant Ki worked out at 69.7 nM and the “% nitrite” value is recorded as 6.1%. Moreover, in [7], the “H2O2-mediated killing of S. aureus on co-treatment” value is listed as “significantly increases the H2O2-mediated killing” and the “S. aureus survival, inhibitor alone” value is on record as “reduced bacterial survival over time”.

For the molecule `CNCCN(C)c1cc(CCc2cc(C)cc(N)n2)cc(C(F)(F)F)c1` [Compound 19a, N^1-(3-(2-(6-Amino-4-methylpyridin-2-yl)ethyl)-5-(trifluoromethyl)phenyl)-N^1,N^2-dimethylethane-1,2-diamine], in data set [2], the e/n amounted to 238 and the i/n was 122.

Turning to `CNCCN(C)c1cc(C#N)cc(CCc2cc(C)cc(N)n2)c1` [Compound 19c, 3-(2-(6-Amino-4-methylpyridin-2-yl)ethyl)-5-(methyl(2-(methylamino)ethyl)amino)benzonitrile], the T1/2 in data set [8] (brain) amounted to 24.80 h; in data set [8] (plasma), 1.1 h. The AUCinf in [8] (p.o. 10 mg/kg, plasma) came out at 182.46 ng·h/mL.

In the case of `CCNCCN(C)c1cc(C#N)cc(CCc2cc(C)cc(N)n2)c1` [Compound 21a], the affinity in data set [9], expressed as Ki, was 225 nM. Also, in [2], the e/n was 583.7 and the i/n is on record as 178.0.

In data set [9], `Cc1cc(N)nc(CCc2cc(C#N)cc(N(C)CCNC(C)C)c2)c1` [Compound 21b] had an inhibition constant (Ki) of 357 nM. Further, in data set [2], the e/n is listed as 320.1 and the i/n was 361.5.

Molecule `Cc1cc(N)nc(CCc2cc(C#N)cc(N(C)CCNC3CC3)c2)c1` [Compound 21c] gave a Ki in data set [9] of 378 nM. Besides, in data set [2], the e/n turned out to be 274.0 and the i/n is 246.6.

`Cc1cc(N)nc(CCc2cc(C#N)cc(N(C)CCc3cccc(F)c3)c2)c1` [Compound 21d]: the i/n in data set [2] is given as 33.7.

As to `Cc1cc(N)nc(CCc2cc(F)cc(NCCN(C)C)c2)c1` [Compound 23a, N^1-(3-(2-(6-Amino-4-methylpyridin-2-yl)ethyl)-5-fluorophenyl)-N^2,N^2-dimethylethane-1,2-diamine], the Ki in data set [9] came to 758 nM. Further, in data set [2], the e/n amounted to 136.9 and the i/n was 47.3.

`CCNCCN(C)c1cc(F)cc(CCc2cc(C)cc(N)n2)c1` [Compound 23b, N^1-(3-(2-(6-Amino-4-methylpyridin-2-yl)ethyl)-5-fluorophenyl)-N^2-ethyl-N^1-methylethane-1,2-diamine] came in with an inhibitory constant (Ki) in data set [9] of 194 nM. In addition, in data set [2], the e/n worked out at 558.4 and the i/n is reported as 199.4.

In turn, `Cc1cc(N)nc(CCc2cc(F)cc(N(C)CCNC3CC3)c2)c1` [Compound 23c, N^1-(3-(2-(6-Amino-4-methylpyridin-2-yl)ethyl)-5-fluorophenyl)-N^2-cyclopropyl-N^1-methylethane-1,2-diamine] had a Ki in data set [9] of 243 nM. In data set [2], the e/n came out at 124.3 and the i/n was 217.8.

`CCN(CCNC)c1cc(F)cc(CCc2cc(C)cc(N)n2)c1` [Compound 23d, N^1-(3-(2-(6-Amino-4-methylpyridin-2-yl)ethyl)-5-fluorophenyl)-N^1-ethyl-N^2-methylethane-1,2-diamine] returned an inhibitory constant (Ki) in data set [9] of 139 nM. Moreover, in data set [2], the e/n was determined as 93.2 and the i/n was determined as 109.6.

`CNCCN(c1cc(F)cc(CCc2cc(C)cc(N)n2)c1)C1CC1` [Compound 23e, N^1-(3-(2-(6-amino-4-methylpyridin-2-yl)ethyl)-5-fluorophenyl)-N^1-cyclopropyl-N^2-methylethane-1,2-diamine] displayed a Ki in data set [9] of 238 nM. Moreover, in data set [2], the e/n is recorded as 140.9 and the i/n is reported as 148.7.

On to `Cc1cc(N)nc(CCc2cc(F)cc(NCc3cccc(Cl)c3)c2)c1` [Compound 23f, 6-(3-((3-Chlorobenzyl)amino)-5-fluorophenethyl)-4-methylpyridin-2-amine], for which the Ki in [9] was determined as 2070 nM. For the same molecule, in [2], the e/n stood at 262.0 and the i/n was 354.1.

`Cc1cc(N)nc(CCc2cc(F)cc(NCc3cccnc3)c2)c1` [Compound 23g, 6-(3-Fluoro-5-((pyridin-3-ylmethyl)amino)phenethyl)-4-methylpyridin-2-amine]: the Ki in [9] worked out at 255 nM. Moreover, in [2], the e/n came out at 10.0 and the i/n turned out to be 10.7.

In data set [9], `Cc1cc(N)nc(CCc2cc(F)cc(N3CCNCC3)c2)c1` [Compound 23h, 6-(3-Fluoro-5-(piperazin-1-yl)phenethyl)-4-methylpyridin-2-amine] yielded a Ki of 161 nM. In addition, in data set [2], the e/n is listed as 82.8 and the i/n turned out to be 60.2.

The molecule `Cc1cc(N)nc(CCc2cc(F)cc(NC3CCNCC3)c2)c1` [Compound 23i, 6-(3-Fluoro-5-(piperidin-4-ylamino)phenethyl)-4-methylpyridin-2-amine] showed a Ki in data set [9] of 384 nM. For the same molecule, in data set [2], the e/n worked out at 40.2 and the i/n is reported as 110.9.

Take `Cc1cc(N)nc(-c2ccc(CNCCc3cccc(F)c3)cc2)c1` [Compound 27, 6-(4-(((3-Fluorophenethyl)amino)methyl)phenyl)-4-methylpyridin-2-amine]: in data set [6], affinity was put at a Ki of 502 nM and the “% nitrite” value was 13.2%. Besides, in data set [7], the “H2O2-mediated killing of S. aureus on co-treatment” value was “significantly increases the H2O2-mediated killing” and the “S. aureus survival, inhibitor alone” value is listed as “reduced bacterial survival over time”.

Regarding `COCCCC/C(=N\OCCN)c1ccc(C(F)(F)F)cc1` [Fluvoxamine, reference compound], the “% inhibition CYP1A2” value in data set [10] came to 95%.

For the molecule `N=C(NCCC[C@H](N)C(=O)O)N[N+](=O)[O-]` [L-NNA, N^ω-nitro-L-arginine], the “% nitrite” value in [6] was found to be 40.9±5.3%. Moreover, the “% survival of wt B. subtilis with ACR” value in data set [11] (NOS inhibitor + ACR, 30 min) is “bacterial % survival decreased in the presence of ACR”. Also, the “% survival of wt B. subtilis with H2O2” value in [11] (NOS inhibitor + H2O2, 30 min) was “trivial effects on bacterial survival”.

With `CNC(=C[N+](=O)[O-])NCCSCc1ccc(CN(C)C)o1` [Ranitidine], in [12] (10 μM, 2 h), the “apparent permeability (Papp) mean A → B” value is 0.45 10^−6 cm s^−1 and the “apparent permeability (Papp) mean B → A” value was 1.2 10^−6 cm s^−1. Further, the efflux ratio in data set [12] (Papp (B→A)/Papp (A→B)) was determined as 2.7.

With `CC(=O)CC(c1ccccc1)c1c(O)c2ccccc2oc1=O` (stereo not shown) [Warfarin, reference compound], the recovery at 4 h, 5 μM in data set [13] came to 100%. Moreover, the “% compound remaining at 4 h” value in data set [14] was 94%.

acriflavine: in [11] (single agent, 500 μM NOS inhibitor or 800 μM ACR), the “bacterial growth, % of control” value was found to be 23%.
